Data on 10 compounds can be found in patent US8846671B2, “Heterocyclic alkynyl benzene compounds and medical compositions and uses thereof” (Guangzhou Institute of Biomedicine and Health, Chinese …, priority 2010, dated 2014).

Usually Tmax stands for the time from dosing to the highest level. The Cmax is the highest concentration seen after dosing. As a reminder, the AUC(0-inf) is the area under the concentration-time curve extrapolated to infinity. What is called half-life is the time in which the quantity being followed falls by half. What is called bioavailability is the share of a dose that reaches the circulation, judged against a reference dose that is usually intravenous.

Data set [1] is described as follows: Pharmacokinetics and bioavailability in rats. It is filed as in vivo. The settings on record: SD rats; for BA(% Oral bioavailability) / bioavailability: calculated according to AUC data, PO vs IV; for bioavailability: read-out: BA(% Oral bioavailability). The essentials:
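Rats dosed, heparinized blood sampled at set times, plasma stored at -20 °C, acetonitrile-precipitated and analyzed by HPLC-MS. Compartmental and non-compartmental parameters derived; bioavailability from AUC.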

The test system of data set [2] is K562 cells (human CML cell line expressing native Bcr-Abl). Description: Xenograft model of K562 in nude mice, oral dosing. The settings on record: for effect on tumor growth: 25 mg/kg po qd; for effect on body weight / anti-tumor effect compared with imatinib: po, qd. The protocol:
Tumor volume and body weight were monitored once every 2 days (In each group, the tumor volume and body weight at beginning of the day were recorded). Tumor volume was calculated as […]*a*b*b.L×W2/2 (a and b are the length and width of the tumor, respectively). […] The results were shown in Drawings as FIGS. 1, 2, 3, 4, 5, 6, 7 and 8.

Data set [3] has as its system Ba/F3-Bcr/ABL-T315I cells. Kind of data set: Xenograft model of BAF3-T315I in SCID nude mice, oral dosing. The settings on record: 20 mg/kg po, q2d or qd (Example 51). The protocol: When the mean tumor volume reached 300-500 mm^3, mice were grouped and administered orally. […] Tumor volume and body weight were monitored once every 2 days (In each group, the tumor volume and body weight at beginning of the day were recorded). Tumor volume was calculated as π/6*a*b*b.L×W2/2 (a and b are the length and width of the tumor, respectively). […] The results were shown in Drawings as FIG. 9, 10, 11, 12, 13, 14, 15, 16.

For a further data set, the system named is U937 Cell line. Kind of data set: tumor cell proliferation, MTT or CCK8 assay, 72 h incubation. It is filed as cell-based. The settings on record: Homo sapiens, read-out: IC50 on tumor cell proliferation, U937. In short, it runs like this:
(§1)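 Leukemia cell lines were exposed to compounds at 1×10^−10˜1×10^−5M for 72 h. Proliferation was read by MTT (570 nm) or CCK8 (450/650 nm) after a further 4 h incubation. IC50 values were calculated from inhibition of proliferation.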

The test system of data set [4] is MOLT-4 (Human acute lymphoblastic leukemia cell line). Described as above. It is filed as cell-based. As to conditions: MOLT-4, 72 h, read-out: IC50 on tumor cell proliferation, MOLT-4. In short, it runs like this:
as §1

Data set [5] relates to K562 (human chronic myelogenous leukemia cell line). The data set is described as above. It is filed as cell-based. The settings on record: K562, 72 h, read-out: IC50 on tumor cell proliferation, K562. The essentials:
as §1

Data set [6] deals with MEG-01 (Human megakaryoblastic leukaemia cell line). The data set is described as above. As to conditions: MEG-01, 72 h, read-out: IC50 on tumor cell proliferation, MEG-01. It is filed as cell-based. The essentials:
as §1

In data set [7] the target is BAF3-T315I cells (Ba/F3 cell line stably expressing BCR/ABL T315I) (Homo sapiens, UniProt P00519, T315I, cells depend on it). The description is as above. It is filed as cell-based, mice.
Data set [8] concerns K562R cells (imatinib-resistant cell line). Described as above. It is filed as cell-based. The settings on record: Homo sapiens, K-562R, read-out: IC50 on tumor cell proliferation, K562R cells.
Setting [9] is: both sexes, Sprague-Dawley, rat, plasma, iv, 10 mg/kg, IV 10 mg/kg.
[10] abbreviates: both sexes, Sprague-Dawley, rat, plasma, iv, 10 mg/kg, IV 10 mg/kg, read-out: Cmax.
Setting [11] is: both sexes, Sprague-Dawley, rat, plasma, iv, 10 mg/kg, IV 10 mg/kg, read-out: Tmax.
[12] abbreviates: both sexes, Sprague-Dawley, rat, plasma, po, 25 mg/kg, PO 25 mg/kg.
Where [13] appears, read: both sexes, Sprague-Dawley, rat, plasma, po, 25 mg/kg, PO 25 mg/kg, read-out: Cmax.
Where [14] appears, read: both sexes, Sprague-Dawley, rat, plasma, po, 25 mg/kg, PO 25 mg/kg, read-out: Tmax.
The mark [15] stands for this setting: both sexes, Sprague-Dawley, rat, plasma, iv, 5 mg/kg, IV 5 mg/kg.
[16] abbreviates: both sexes, Sprague-Dawley, rat, plasma, po.
The mark [17] stands for this setting: read-out: IC50 on tumor cell proliferation, BAF3-T315I cells; Ba/F3 expressing BCR/ABL T315I, 72 h, Table 1.

Where a name gives a salt, the structure may show the parent alone. Read-outs that look alike come from different tables or passages of the source. Bounds are passed on as bounds.

For the compound `Cc1cn(-c2cc(NC(=O)c3ccc(C)c(C#Cc4cnc5[nH]ncc5c4)c3)cc(C(F)(F)F)c2)cn1` [D767 mesylate salt, 3-(2-(1H-pyrazolo[3,4-b]pyridin-5-yl)ethynyl)-4-methyl-N-(3-(4-methyl-1H-imidazol-1-yl)-5-(trifluoromethyl)phenyl)benzamide], the Tmax in [1] (IV 5 mg/kg) stood at 0.033 h. In data set [1] (IV 5 mg/kg, 5 mg/kg), the “AUC(0-∞)” value was 59222.45 ng·h/mL, the Cmax came to 14093.75 ng/mL and the T1/2 amounted to 4.471 h. In addition, in data set [1] (PO 25 mg/kg, 25 mg/kg), the “AUC(0-∞)” value was 27850.615 ng·h/mL, the Cmax came out at 2322.5 ng/mL, the T1/2 is 5.949 h and the time of peak concentration (Tmax) turned out to be 2.75 h. In addition, in data set [1], the “BA(% Oral bioavailability)” value is 9.4%. Moreover, in data set [2], the “effect on tumor growth” value was “completely inhibit the tumor growth” and the “effect on body weight” value was “did not cause the body weight loss”.
Consider `Cc1cn(-c2cc(NC(=O)c3ccc(C)c(C#Cc4cnc(NC5CC5)nc4)c3)cc(C(F)(F)F)c2)cn1` [D747 hydrochloride salt, 3-(2-(2-(cyclopropylamino)pyrimidin-5-yl)ethynyl)-4-methyl-N-(3-(4-methyl-1H-imidazol-1-yl)-5-(trifluoromethyl)phenyl)benzamide], for which the “BA(% Oral bioavailability)” value in [1] is recorded as 35.3%. In data set [1] (setting [9]), this compound gave an AUC(0-inf) of 285000 ng·h/mL and a half-life of 71.8 h. Further, in data set [1] (setting [10]), the Cmax was found to be 49800 ng/mL. Further, the Tmax in data set [1] (setting [11]) was 0.033 h. In data set [1] (setting [12]), this compound gave an AUC(0-inf) of 252000 ng·h/mL and a half-life of 48.7 h. Besides, the Cmax in data set [1] (setting [13]) is 6200 ng/mL. The Tmax in [1] (setting [14]) is 4.5 h. Moreover, in data set [2], the “effect on tumor growth” value is on record as “completely inhibit the tumor growth”, the “anti-tumor effect compared with imatinib” value is “better anti-tumor effect than imatinib” and the “effect on body weight” value is “did not cause the body weight loss”.
Consider `CNc1ncc(C#Cc2cc(C(=O)Nc3cc(-n4cnc(C)c4)cc(C(F)(F)F)c3)ccc2C)cn1` [D800 mesylate, 4-methyl-N-(3-(4-methyl-1H-imidazol-1-yl)-5-(trifluoromethyl)phenyl)-3-(2-(2-(methylamino)pyrimidin-5-yl)ethynyl)benzamide], for which, in [2], the “effect on tumor growth” value was “completely inhibit the tumor growth” and the “effect on body weight” value is recorded as “did not cause the body weight loss”.
With `Cc1cn(-c2cc(NC(=O)c3ccc(C)c(C#Cc4cnc5[nH]ncc5c4)c3)cc(C(C)(C)C)c2)cn1` [D968 mesylate, 3-(2-(1H-pyrazolo[3,4-b]pyridin-5-yl)ethynyl)-N-(3-tert-butyl-5-(4-methyl-1H-imidazol-1-yl)phenyl)-4-methylbenzamide mesylate], the “effect on tumor growth” value in data set [3] is recorded as “inhibit the tumor growth”.
For the compound `Cc1cn(-c2cc(NC(=O)c3ccc(C)c(C#Cc4cnc5nccn5c4)c3)cc(C(F)(F)F)c2)cn1` [D799, 3-(2-(imidazo[1,2-a]pyrimidin-6-yl)ethynyl)-4-methyl-N-(3-(4-methyl-1H-imidazol-1-yl)-5-(trifluoromethyl)phenyl)benzamide], the IC50 is over 100 nM in the data set on U937 Cell line (U-937, 72 h, MTT or CCK8, nM); over 100 nM in data set [4] (MTT or CCK8, nM); 36.2 nM in data set [5] (MTT or CCK8, nM); over 100 nM in data set [6] (MTT or CCK8, nM); 612 nM in [8] (imatinib-resistant K562R). Moreover, the GI50 in data set [7] (Ba/F3 expressing BCR/ABL T315I, 72 h, Table 1; read-out: IC50 on tumor cell proliferation, BAF3-T315I cells) is over 10000 nM.
As to `Cc1ccc(C(=O)Nc2ccc(CN3CCN(C)CC3)c(C(F)(F)F)c2)cc1C#Cc1cnc2ccnn2c1` [D856 dimesylate salt, 4-methyl-N-(4-((4-methylpiperazin-1-ylmethyl)-3-(trifluoromethyl)phenyl)-3-(2-(pyrazolo[1,5-a]pyrimidin-6-yl)ethynyl)benzamide dimesylate], the figures for the AUC(0-inf) in [1] (setting [15]) and in [1] (setting [12]) were 8170 ng·h/mL and 31800 ng·h/mL, respectively. In addition, the half-life in data set [1] (setting [15]) is 20 h; in [1] (setting [12]), 22.2 h. The Cmax in [1] (both sexes, Sprague-Dawley, rat, plasma, iv, 5 mg/kg, IV 5 mg/kg, read-out: Cmax) came out at 934 ng/mL; in data set [1] (setting [13]), 900 ng/mL. For the same compound, the Tmax in data set [1] (both sexes, Sprague-Dawley, rat, plasma, iv, 5 mg/kg, IV 5 mg/kg, read-out: Tmax) is 0.033 h; in data set [1] (setting [14]), 6.5 h. Further, the bioavailability in [1] (setting [16]) is 78%. In data set [3], the “effect on tumor growth” value was “inhibit the tumor growth”.
`Cc1cn(-c2cc(NC(=O)c3ccc(C)c(C#Cc4cnc(NCCO)nc4)c3)cc(C(F)(F)F)c2)cn1` [D820, 3-(2-(2-(2-hydroxyethylamino)pyrimidin-5-yl)ethynyl)-4-methyl-N-(3-(4-methyl-1H-imidazol-1-yl)-5-(trifluoromethyl)phenyl)benzamide]: the IC50 is over 100 nM with U937 Cell line (U-937, 72 h); 134 nM in data set [4]; 1.37 nM in [5]; over 100 nM in [6]; 35.2 nM in data set [8]. Besides, the GI50 in data set [7] (setting [17]) stood at 276 nM.
In the case of `CNc1ncc(C#Cc2cc(C(=O)Nc3cc(-n4cnc(C)c4)cc(C(F)(F)F)c3)ccc2C)cn1` [D800, 4-methyl-N-(3-(4-methyl-1H-imidazol-1-yl)-5-(trifluoromethyl)phenyl)-3-(2-(2-(methylamino)pyrimidin-5-yl)ethynyl)benzamide], the IC50 is over 100 nM with U937 Cell line (U-937, 72 h); over 100 nM in data set [4]; 1.1 nM in [5]; over 100 nM in data set [6]; 89.7 nM in data set [8]. In data set [7] (setting [17]), the GI50 came out at 99.8 nM. For the same compound, in [1] (corresponding pharmaceutical acceptable salt forms), the “pharmacokinetics parameters, overall judgement” value is reported as “adequate pharmacokinetics parameters”.
As for `Cc1cn(-c2cc(NC(=O)c3ccc(C)c(C#Cc4cnc(N5CCCCC5)nc4)c3)cc(C(F)(F)F)c2)cn1` [D797, 4-methyl-N-(3-(4-methyl-1H-imidazol-1-yl)-5-(trifluoromethyl)phenyl)-3-(2-(2-(piperidin-1-yl)pyrimidin-5-yl)ethynyl)benzamide], the IC50 in the data set with U937 Cell line (U-937, 72 h) was over 100 nM; in data set [4], over 10 nM; in data set [5], over 100 nM; in data set [6] it was over 100 nM; in [8], 3370 nM. The GI50 in [7] (setting [17]) stood at 13000 nM.
For `Cc1cn(-c2cc(NC(=O)c3ccc(C)c(C#Cc4cnc5ccnn5c4)c3)cc(C(F)(F)F)c2)cn1` [D822 mesylate salt, 4-methyl-N-(3-(4-methyl-1H-imidazol-1-yl)-5-(trifluoromethyl)phenyl)-3-(2-(pyrazolo[1,5-a]pyrimidin-6-yl)ethynyl)benzamide], in data set [1] (setting [9]), the AUC(0-inf) is 13800 ng·h/mL and the half-life was 3.15 h. Besides, in [1] (setting [10]), the Cmax amounted to 23100 ng/mL. Also, the Tmax in data set [1] (setting [11]) amounted to 0.033 h. In data set [1] (setting [12]), this compound showed an AUC(0-inf) of 10700 ng·h/mL and a half-life of 8.04 h. Besides, the Cmax in data set [1] (setting [13]) was determined as 814 ng/mL. Also, the time to peak (Tmax) in data set [1] (setting [14]) is 3 h. Besides, the bioavailability in data set [1] (setting [16]) is 31.2%. In data set [2], the “effect on tumor growth” value was “completely inhibit the tumor growth”, the “anti-tumor effect compared with imatinib” value is recorded as “better anti-tumor effect than imatinib” and the “effect on body weight” value is “did not cause the body weight loss”.
